The structures appear in SMILES notation. Counter-ions that a name gives are not always drawn.

The values below come from US20080207708A1, “Oxazole and Thiazole Compounds and Their Use in the Treatment of Pge2 Mediated Disorders” (GLAXO GROUP LIMITED, priority 2005, published 2008).

One test relates to gastric lesions in rats. Particulars: lesions induced by taurocholate acid, aspirin or indomethacin, J. Pharmacol. Exp. Ther. 1992, 263(1), 374-380; cited from earlier work.
Test [1] addresses T1, EP1 receptors (Homo sapiens, UniProt P34995).
T1 sequence (P34995 1-402): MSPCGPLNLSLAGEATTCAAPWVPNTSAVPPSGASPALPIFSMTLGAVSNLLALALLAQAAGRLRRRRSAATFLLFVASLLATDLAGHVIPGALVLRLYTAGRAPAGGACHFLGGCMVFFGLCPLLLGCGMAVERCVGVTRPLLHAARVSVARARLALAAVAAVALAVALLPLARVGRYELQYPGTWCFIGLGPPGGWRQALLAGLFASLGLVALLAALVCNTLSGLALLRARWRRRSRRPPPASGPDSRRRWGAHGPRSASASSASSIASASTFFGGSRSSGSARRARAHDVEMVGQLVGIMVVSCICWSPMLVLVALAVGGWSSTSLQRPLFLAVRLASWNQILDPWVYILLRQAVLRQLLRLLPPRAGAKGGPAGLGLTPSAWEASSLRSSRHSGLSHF
Put plainly: human EP1 calcium mobilisation assay (CHO-K1 cells, FLIPR, PGE2). In kind it is cell-based. On the set-up: expressed in transfected cells; host or cells: CHO-K1 cells, pCIN vector. The following applies: free bases or sodium salts; averages of a number of experiments; read-out: functional pKi value, human EP1 calcium mobilisation assay (converted). An outline of the steps: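 CHO-K1 cells stably transfected with human EP1 cDNA, loaded with Fluo-4 AM after 24 h culture at 37° C. Compounds added first, then PGE2; antagonism read as inhibition of PGE2-induced intracellular calcium rise on FLIPR. pIC50 taken as concentration giving half-maximal inhibition, from curve fitting.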
(A change in cytosolic calcium serves as a functional read-out for many receptors and channels.)

In test [2] the target is T1, EP1 receptors. Put plainly: Binding assay for the human prostanoid EP1 receptor (competition with [3H]-PGE2). On the set-up: expressed in transfected cells; host or cells: CHO-K1 cells, membrane fraction. Particulars: [3H]-PGE2 competition; averages of a number of experiments; read-out: pIC50 value, binding assay for the human prostanoid EP1 receptor (converted). In a few lines:
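Membranes from CHO-K1 cells stably expressing human EP1 incubated with compounds and [3H]-PGE2 (3 nM final) for 30 min at 30° C in MES buffer with EDTA and MgCl2, pH 6. Bound radioactivity measured after filtration; IC50 from nonlinear fit of specific binding inhibition.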

The subject of test [3] is rodent model of post-operative pain. The following applies: Anesthesia and Analgesia 2001, 92, 233-238; cited from earlier work.
In test [4] the test system is rat model of chronic constriction injury. Particulars: Anesthesia and Analgesia 2001, 93, 1012-7; cited from earlier work.

In the case of `O=C(O)Cc1ccc(CCNS(=O)(=O)c2ccc(Cl)cc2)cc1` [BM 13505], in the test with gastric lesions in rats, the gastric lesions result is given as “inhibit gastric lesions”.

Consider `CN1CCN(Cc2ccc3nc(-c4coc(Cc5cc(Cl)ccc5OCc5ccccc5)n4)[nH]c3c2)CC1` [Example 171, 2-[2-({5-chloro-2-[(phenylmethyl)oxy]phenyl}-methyl)-1,3-oxazol-4-yl]-5-[(4-methyl-1-piperazinyl)methyl]-1H-benzimidazolehydrochloride], for which, on EP1 receptors [1], the Ki is under 1000 nM. For the same molecule, the IC50 at EP1 receptors [2] is at most 1000 nM.

Consider `Clc1ccc(OCc2ccccc2)c(Cc2nc(-c3nc4ccc(CN5CCCCC5)cc4[nH]3)co2)c1` [Example 172, 2-[2-({5-chloro-2-[(phenylmethyl)oxy]phenyl}-methyl)-1,3-oxazol-4-yl]-5-(1-piperidinylmethyl)-1H-benzimidazolehydrochloride], for which the Ki at EP1 receptors [1] was under 1000 nM. Further, the IC50 at EP1 receptors [2] is at most 1000 nM.

In the case of `Clc1ccc(OCc2ccccc2)c(Cc2nc(-c3nc4ccc(CN5CCCC5)cc4[nH]3)co2)c1` [Example 173, 2-[2-({5-chloro-2-[(phenylmethyl)oxy]phenyl}-methyl)-1,3-oxazol-4-yl]-5-(1-pyrrolidinylmethyl)-1H-benzimidazolehydrochloride], the Ki on EP1 receptors [1] is under 1000 nM. The IC50 on EP1 receptors [2] was at most 1000 nM.

As for `CNCc1ccc2nc(-c3coc(Cc4cc(Cl)ccc4OCC(C)C)n3)[nH]c2c1` [Example 174, ({2-[2-({5-Chloro-2-[(2-methylpropyl)oxy]phenyl}methyl)-1,3-oxazol-4-yl]-1H-benzimidazol-5-yl}methyl)methylaminedihydrochloride], on EP1 receptors [1], the Ki is under 1000 nM. Further, the IC50 on EP1 receptors [2] was at most 31.6 nM.

On to `CC(C)COc1ccc(Cl)cc1Cc1nc(-c2nc3ccc(CN(C)C)cc3[nH]2)co1` [Example 175, ({2-[2-({5-Chloro-2-[(2-methylpropyl)oxy]phenyl}methyl)-1,3-oxazol-4-yl]-1H-benzimidazol-5-yl}methyl)dimethylaminedihydrochloride], for which the Ki on EP1 receptors [1] was under 1000 nM. At EP1 receptors [2], the IC50 is at most 31.6 nM.

With `CC(C)COc1ccc(Cl)cc1Cc1nc(-c2nc3ccc(CN4CCCC4)cc3[nH]2)co1` [Example 176, 2-[2-({5-chloro-2-[(2-methylpropyl)oxy]phenyl}methyl)-1,3-oxazol-4-yl]-5-(1-pyrrolidinylmethyl)-1H-benzimidazoledihydrochloride], the Ki on EP1 receptors [1] was under 1000 nM. In addition, the IC50 at EP1 receptors [2] was at most 31.6 nM.

As to `CC(C)COc1ccc(Cl)cc1Cc1nc(-c2nc3ccc(CN4CCCCC4)cc3[nH]2)co1` [Example 177, 2-[2-({5-chloro-2-[(2-methylpropyl)oxy]phenyl}methyl)-1,3-oxazol-4-yl]-5-(1-piperidinylmethyl)-1H-benzimidazoledihydrochloride], the Ki on EP1 receptors [1] was under 1000 nM. In addition, the IC50 on EP1 receptors [2] was at most 31.6 nM.

Take `CC(C)COc1ccc(Cl)cc1Cc1nc(-c2nc3ccc(CN4CCN(C)CC4)cc3[nH]2)co1` [Example 178, 2-[2-({5-Chloro-2-[(2-methylpropyl)oxy]phenyl}methyl)-1,3-oxazol-4-yl]-5-[(4-methyl-1-piperazinyl)methyl]-1H-benzimidazoletrihydrochloride]: the Ki at EP1 receptors [1] is under 1000 nM. For the same molecule, at EP1 receptors [2], the IC50 is at most 31.6 nM.

As to `CNCc1ccc2nc(-c3csc(Nc4cc(Cl)ccc4OCC(C)C)n3)[nH]c2c1` [Example 179, N-{5-Chloro-2-[2-methylpropyl)oxy]phenyl}-4-{5-[(methylamino)methyl]-1H-benzimidazol-2-yl}-1,3-thiazol-2-amine hydrochloride], the Ki at EP1 receptors [1] is over 1000 nM. In addition, the IC50 on EP1 receptors [2] is at most 31.6 nM.

`CC(C)COc1ccc(Cl)cc1Nc1nc(-c2nc3ccc(CN(C)C)cc3[nH]2)cs1` [Example 180, N-{5-Chloro-2-[(2-methylpropyl)oxy]phenyl}-4-{5-[(dimethylamino)methyl]-1H-benzimidazol-2-yl}-1,3-thiazol-2-aminehydrochloride]: the Ki on EP1 receptors [1] was over 1000 nM. Moreover, at EP1 receptors [2], the IC50 is at most 31.6 nM.

Consider `CC(C)COc1ccc(Cl)cc1Nc1nc(-c2nc3ccc(CN4CCCC4)cc3[nH]2)cs1` [Example 181, N-{5-Chloro-2-[(2-methylpropyl)oxy]phenyl)-4-[5-(1-pyrrolidinylmethyl)-1H-benzimidazol-2-yl]-1,3-thiazol-2-amine], for which the Ki on EP1 receptors [1] is over 1000 nM. Further, the IC50 at EP1 receptors [2] is at most 1000 nM.

Take `CC(C)COc1ccc(Cl)cc1Nc1nc(-c2nc3ccc(CN4CCCCC4)cc3[nH]2)cs1` [Example 182, N-{5-Chloro-2-[(2-methylpropyl)oxy]phenyl}-4-[5-(1-piperidinylmethyl)-1H-benzimidazol-2-yl]-1,3-thiazol-2-amine]: at EP1 receptors [1], the Ki is over 1000 nM. For the same molecule, the IC50 at EP1 receptors [2] was at most 1000 nM.

As to `CC(C)COc1ccc(Cl)cc1Nc1nc(-c2nc3ccc(CN4CCN(C)CC4)cc3[nH]2)cs1` [Example 183, N-{5-Chloro-2-[(2-methylpropyl)oxy]phenyl}-4-{5-[(4-methyl-1-piperazinyl)methyl]-1H-benzimidazol-2-yl}-1,3-thiazol-2-amine], the Ki on EP1 receptors [1] was under 1000 nM. Further, on EP1 receptors [2], the IC50 is at most 31.6 nM.

For the molecule `Cc1cc(Cl)ccc1S(=O)(=O)NC[C@H]1C2CCC(CC2)[C@@H]1/C=C\CCCC(=O)O` [ONO-8711], the mechanical hyperalgesia result in test [3] is recorded as “inhibits mechanical hyperalgesia”. Also, the hyperalgesia and allodynia result in test [4] is “reduces hyperalgesia and allodynia”.

As for `O=C(O)CCc1ccccc1CC1C2CCC(O2)C1c1nc(C(=O)NCCCCC2CCCCC2)co1` (stereo not drawn) [SQ 33961], in the test on gastric lesions in rats, the gastric lesions entry is listed as “inhibit gastric lesions”.
